The nature of data set [1]: UV absorbance spectrum in solution (λmax, λcrit, extinction coefficients). The class given is physicochemical. The settings on record: for λcrit: critical wavelength; for E (1%, 1 cm): mass extinction coefficient; for ε: molar extinction coefficient, in M-1 cm-1 (unit assumed). From the text: (§1) FIG. 1 is a graphical representation of the absorbance of compounds 142 and 143 measured in a 10 mm cuvette as 0.001% solutions in methanol (142 is the uppermost trace at peak point of approximately 330 nm); The synthesised benzoyl functionalised compounds and their spectroscopic properties can be seen in table 2 wherein; breakthrough denotes the value in nm where transmittance increases beyond 1%; steepness refers to the distance in nm over which transmittance increases from 1 to 80% (a higher value indicates a less steep transition from absorbing to transmitting and is generally unfavourable); and ^a denotes an average of multiple measurements. As a general comment, it can be noted that the benzoyl substituted compounds gave similar absorbance maxima to the corresponding trifluoroacetyl derivative.

Data set [2] can be described thus: % transmission spectrum of 0.1% solution (breakthrough, steepness). The class given is physicochemical. The settings on record: for Steepness: distance in nm over which transmittance increases from 1 to 80%; for Breakthrough (1% T at 0.1%): value in nm where transmittance increases beyond 1%, 0.1% solution.
Description: FIG. 2 is a is a graphical representation of the % transmission of compounds 142 and 143 measured in a 2 mm cuvette as 0.1% solutions in methanol (142 is the left most trace);
as §1, with “The” for “FIG. 1 is a graphical representation of the absorbance of compounds 142 and 143 measured in a 10 mm cuvette as 0.001% solutions in methanol (142 is the uppermost trace at peak point of approximately 330 nm); The”

The structures appear in SMILES notation.

Take `O=C(/C(=C\N1CCCc2ccccc21)c1ccccc1)C(F)(F)F` [Compound 163]: in data set [1], the λmax came out at 354 nm; the λcrit amounted to 383 nm; the “E (1%, 1 cm)” value came out at 811; the ε came to 26848.
For `CC1CCc2ccccc2N1/C=C(\C(=O)C(F)(F)F)c1ccccc1` (stereo not shown) [Compound 211], in data set [1], the λmax came out at 350 nm; the λcrit was found to be 380 nm; the “E (1%, 1 cm)” value is on record as 837; the ε is on record as 28907.
For `O=C(/C(=C\N1CCc2ccc(C(F)(F)F)cc21)c1ccccc1)C(F)(F)F` [Compound 236], in data set [1], the λmax is given as 364 nm; the λcrit is listed as 387 nm; the “E (1%, 1 cm)” value was 815; the ε was determined as 31379. Besides, in data set [2], the Steepness worked out at 19 nm and the “Breakthrough (1% T at 0.1%)” value is 409 nm.
As for `O=C(/C(=C\N1CCCC1)c1ccccc1)C(F)(F)F` [Compound 193], in data set [1], the λmax came to 323 nm; the λcrit came out at 354 nm; the “E (1%, 1 cm)” value came to 769; the ε worked out at 20673.
`O=C(/C(=C\N1CCCN(/C=C(/C(=O)C(F)(F)F)c2ccccc2)CC1)c1ccccc1)C(F)(F)F` [Compound 210]: in data set [1], the λmax amounted to 326 nm; the λcrit amounted to 356 nm; the “E (1%, 1 cm)” value was 819; the ε amounted to 40611.
As to `CN(C)S(=O)(=O)c1ccc(C(=O)/C(=C/N2CCc3ccccc32)c2ccccc2)cc1` [Compound 266], in data set [1], the λmax came to 368 nm; the λcrit is on record as 390 nm; the “E (1%, 1 cm)” value is 552; the ε is on record as 23870. For the same molecule, in data set [2], the Steepness amounted to 46 nm and the “Breakthrough (1% T at 0.1%)” value is recorded as 429 nm.
Take `Cc1ccc2c(c1)CCN2/C=C(\C(=O)C(F)(F)F)c1ccccc1` [Compound 205]: in data set [1], the λmax came to 371 nm; the λcrit is given as 391 nm; the “E (1%, 1 cm)” value stood at 1108; the ε stood at 36692.
Consider `CCN(/C=C(\C(=O)C(F)(F)F)c1ccccc1)c1ccc(Br)cc1` [Compound 216], for which, in data set [1], the λmax stood at 332 nm; the λcrit stood at 367 nm; the “E (1%, 1 cm)” value is reported as 651; the ε is 25865.
Turning to `O=C(/C(=C\N1CCc2cc(Br)ccc21)c1ccccc1)C(F)(F)F` [Compound 214], in data set [1], the λmax is reported as 371 nm; the λcrit worked out at 390 nm; the “E (1%, 1 cm)” value is 994; the ε is listed as 39265.
The corresponding values for `C=CCN(/C=C(\C(=O)C(F)(F)F)c1ccccc1)c1ccccc1` [Compound 172] are 331 nm, 365 nm, 673 and 22290.
Consider `CCN(/C=C(\C(=O)C(F)(F)F)c1ccccc1)c1cccc(C)c1` [Compound 186], for which, in data set [1], the λmax was found to be 331 nm; the λcrit came out at 367 nm; the “E (1%, 1 cm)” value came out at 709; the ε is 23605.
In the case of `CCN(/C=C(\C(=O)C(F)(F)F)c1ccccc1)c1cccc(Br)c1` [Compound 225], in data set [1], the λmax is 332 nm; the λcrit is reported as 366 nm; the “E (1%, 1 cm)” value came to 609; the ε is reported as 24181.
In the case of `O=C(/C(=C\N1CCN(/C=C(/C(=O)C(F)(F)F)c2ccccc2)CC1)c1ccccc1)C(F)(F)F` [Compound 195], in data set [1], the λmax was found to be 339 nm; the λcrit amounted to 360 nm; the “E (1%, 1 cm)” value came to 689; the ε stood at 33248.
For `O=C(/C(=C\N1CCCCC1)c1ccccc1)C(F)(F)F` [Compound 192], in data set [1], the λmax came out at 322 nm; the λcrit came out at 353 nm; the “E (1%, 1 cm)” value came to 884; the ε was determined as 25028.
The matching figures for `O=C(/C(=C\N1CCc2cc(F)ccc21)c1ccccc1)C(F)(F)F` [Compound 198]: 368 nm, 389 nm, 890 and 29804.
Take `O=C(/C(=C\N1CCOCC1)c1ccccc1)C(F)(F)F` [Compound 209]: in data set [1], the λmax is listed as 320 nm; the λcrit is recorded as 351 nm; the “E (1%, 1 cm)” value was 855; the ε was determined as 24356.
The corresponding values for `CCN(/C=C(\C(=O)C(F)(F)C(F)(F)C(F)(F)C(=O)/C(=C\N(CC)c1ccccc1)c1ccccc1)c1ccccc1)c1ccccc1` [Compound 190] are 330 nm, 370 nm, 616 and 40027.
The matching figures for `CN(/C=C(\C(=O)C(F)(F)F)c1ccccc1)c1ccc([N+](=O)[O-])cc1` [Compound 219]: 376 nm, 391 nm, 710 and 24860.
In the case of `O=C(/C(=C\N1CCc2ccc([N+](=O)[O-])cc21)c1ccccc1)C(F)(F)F` [Compound 202], in data set [1], the λmax is on record as 355 nm; the λcrit is 387 nm; the “E (1%, 1 cm)” value is recorded as 903; the ε was 32693.
The matching figures for `CCN(/C=C(\C(=O)C(F)(F)F)c1ccccc1)c1ccccc1C` [Compound 177]: 320 nm, 354 nm, 707 and 23543.
In the case of `Cc1cccc2c1N(/C=C(\C(=O)C(F)(F)F)c1ccccc1)CC2` [Compound 199], in data set [1], the λmax worked out at 360 nm; the λcrit is recorded as 386 nm; the “E (1%, 1 cm)” value was determined as 975; the ε came out at 32273.
Regarding `CCCN(/C=C(\C(=O)C(F)(F)F)c1ccccc1)c1ccc(N(/C=C(\C(=O)C(F)(F)F)c2ccccc2)CCC)cc1` [Compound 196], in data set [1], the λmax is 344 nm; the λcrit turned out to be 378 nm; the “E (1%, 1 cm)” value worked out at 714; the ε stood at 41997.
The corresponding values for `CCN(CCOC(=O)c1ccc2c(c1)CCN2/C=C(\C(=O)C(F)(F)F)c1ccccc1)C(=O)OC(C)(C)C` [Compound 218] are 375 nm, 391 nm, 833 and 44357.
The corresponding values for `CCN(/C=C(\C(=O)C(F)(F)F)c1ccccc1)CCOC(=O)c1ccc2c(c1)CCN2/C=C(\C(=O)C(F)(F)F)c1ccccc1` [Compound 226] are 374 nm, 388 nm, 685 and 43151.
For the molecule `O=C(/C(=C\N1CCc2cc([N+](=O)[O-])ccc21)c1ccccc1)C(F)(F)F` [Compound 206], in data set [1], the λmax was 398 nm; the λcrit was 396 nm; the “E (1%, 1 cm)” value is recorded as 1390; the ε is on record as 50315.
Turning to `CCN(/C=C(\C(=O)C(F)(F)F)c1ccccc1)c1cccc2ccccc12` [Compound 189], in data set [1], the λmax came out at 324 nm; the λcrit is recorded as 357 nm; the “E (1%, 1 cm)” value turned out to be 634; the ε was found to be 23400.
With `O=C(/C(=C\N(Cc1ccccc1)c1ccccc1)c1ccccc1)C(F)(F)F` [Compound 162], in data set [1], the λmax was 329 nm; the λcrit is 365 nm; the “E (1%, 1 cm)” value turned out to be 620; the ε was 23495.
Regarding `CCCCC(CC)COc1ccc(N(/C=C(\C(=O)C(F)(F)F)c2ccccc2)CC)cc1` (stereo not shown) [Compound 220], in data set [1], the λmax is 332 nm; the λcrit stood at 371 nm; the “E (1%, 1 cm)” value is listed as 532; the ε is reported as 23819.
In the case of `Cc1ccccc1N(/C=C(\C(=O)C(F)(F)F)c1ccccc1)c1ccccc1` [Compound 223], in data set [1], the λmax was determined as 344 nm; the λcrit is reported as 377 nm; the “E (1%, 1 cm)” value was found to be 679; the ε is 25885.
With `O=C(/C(=C\N1CCCCc2ccccc21)c1ccccc1)C(F)(F)F` [Compound 217], in data set [1], the λmax amounted to 324 nm; the λcrit is 359 nm; the “E (1%, 1 cm)” value came to 843; the ε is on record as 29114.
In the case of `CCCCC(CC)COc1cccc(N(/C=C(\C(=O)C(F)(F)F)c2ccccc2)CC)c1` (stereo not shown) [Compound 221], in data set [1], the λmax was found to be 332 nm; the λcrit was 366 nm; the “E (1%, 1 cm)” value is on record as 490; the ε was 21876.
`CCOc1ccc(/C(=C/N(CC)c2ccccc2)C(=O)C(F)(F)F)cc1` [Compound 197]: in data set [1], the λmax is 335 nm; the λcrit stood at 369 nm; the “E (1%, 1 cm)” value was 1166; the ε was determined as 42359.
For the molecule `O=C(/C(=C\N1CCc2ccccc2C1)c1ccccc1)C(F)(F)F` [Compound 194], in data set [1], the λmax stood at 321 nm; the λcrit came out at 352 nm; the “E (1%, 1 cm)” value is listed as 687; the ε is reported as 22743.
